Laboratory results from patent US8329675B2, “Inhibitors of fatty acid amide hydrolase” (Infinity Pharmaceuticals, Inc., priority 2006, dated 2012).
pKi: −log10 of the molar value.

Target: T1, rat FAAH (Rattus norvegicus, UniProt P97612)
T1 construct: Five rat livers are homogenized in five fold volume with ice cold Tris; from tissue; host or cells: rat liver; 40,000 g membrane pellet solubilised in 1% Triton X-100
T1 sequence (P97612 1-579): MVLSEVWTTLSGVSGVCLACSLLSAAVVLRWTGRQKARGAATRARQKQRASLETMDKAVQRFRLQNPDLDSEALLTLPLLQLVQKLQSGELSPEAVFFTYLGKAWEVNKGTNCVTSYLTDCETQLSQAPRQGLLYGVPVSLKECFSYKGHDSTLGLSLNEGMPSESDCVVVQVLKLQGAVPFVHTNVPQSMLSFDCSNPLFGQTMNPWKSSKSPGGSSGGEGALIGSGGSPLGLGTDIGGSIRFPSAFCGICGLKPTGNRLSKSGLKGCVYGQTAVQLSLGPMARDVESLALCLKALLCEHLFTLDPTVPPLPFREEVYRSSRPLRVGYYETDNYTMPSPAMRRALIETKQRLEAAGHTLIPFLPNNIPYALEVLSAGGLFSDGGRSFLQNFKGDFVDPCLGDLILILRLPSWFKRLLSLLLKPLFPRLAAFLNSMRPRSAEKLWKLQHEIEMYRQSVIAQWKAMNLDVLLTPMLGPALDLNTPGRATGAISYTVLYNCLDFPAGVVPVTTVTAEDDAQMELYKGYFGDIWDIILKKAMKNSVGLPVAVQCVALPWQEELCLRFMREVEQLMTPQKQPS
Experiment: Rat FAAH biochemical inhibition assay (AMC arachidonoyl amide fluorescence)
Excerpt: The following assays may be used to determine the inhibition of FAAH by the compounds of the present invention: (1) a fluorescence-based assay for fatty acid amide hydrolase compatible with high-throughput screening as described in Manjunath et al., Analytical Biochemistry (2005) 343:143-151; and (2) a high-throughput screening for the discovery of inhibitors of fatty acid amide hydrolase using a microsome-based fluorescent assay. Wang et al., Biomolecular Screening (2006) 1-9.
Rat FAAH Preparation: Five rat livers are homogenized in five fold volume with ice cold Tris (20 mM pH 8.0) and 0.32 M Sucrose solution via an Ultra Turrax T25 homogenizer. All subsequent preparation steps are carried out at 4° C. The homogenate is centrifuged at 6000 g, for 20 minutes and the pellet, containing nuclear debris and mitochondria is discarded. The supernatant is centrifuged at 40,000 g for 30 minutes. […]
Rat FAAH Biochemical Inhibition Assay; Materials and methods: Rat FAAH biochemical assays are carried out in a 96 well flat bottom black non-treated polystyrene plates (Corning Costar Catalogue #3915). […] FAAH substrate—AMC Arachidonoyl Amide (Cayman Chemicals Company, Catalogue #10005098) The reaction is read in an Envision microtiter plate reader [Excitation filter 355 nm (40 nm bandpass); Emmision filter 460 nm (25 nm bandpass)]. The raw fluorescence is plotted on the y axis and the inhibitor concentration on the x axis to give a dose response inhibition curve. […]
Rat FAAH Biochemical Inhibition Assay; Experimental Protocol: The principle of this assay is the hydrolysis of AMC-Arichodonoyl, a fluorescent analogue of Anandamide, which results in the formation of Arachidonic acid and AMC. The formation of AMC results in an increase in fluorescence (see, for example, Manjunath et al., Analytical Biochemistry (2005) 343:143-151; and Wang et al., Bimolecular Screening (2006) 1-9).
A 0.49 mg/ml Rat liver FAAH solution is made up in FAAH reaction buffer, and 78 ul pipetted into a 96 well plate. […] The microtiter plate is read in the envision plate reader. […]

Row | Structure (SMILES) | pKi (Table 2, rat FAAH (asterisk)) | pKi (Table 1, rat FAAH (asterisk))
1 | CCCCOc1cccc(B(O)O)c1 [II-315] | 6.00 to 8.00 | 
2 | CCCCCCOc1ccc(B(O)O)cc1 [Compound I-130] |  | 6.00 to 8.00
3 | OB(O)c1cc2ccccc2s1 [Compound I-127] |  | 6.00 to 8.00
